Assay results: EP0017976A2, “Process for preparing imidazole derivatives” (F. HOFFMANN-LA ROCHE & CO. Aktiengesellschaft, priority 1979, dated 1980)

What was measured:
Schistosoma mansoni = experiment: Schistosomicidal effect: share of living and dead worm pairs in liver vessels of infected mice, treated vs untreated; VD50 by probit method; assay type: in vivo; details: mice infected with cercariae of Schistosoma mansoni; qualitative statement only, VD50 not given
From the text: Die schistosomicide Wirkung wurde ermittelt durch Vergleich des prozentualen Anteils lebender und toter Wurmpaare in den Gefässen der Leber sowohl bei mit Cercarien von Schistosoma mansoni infizierten, behandelten Mäusen als auch bei infizierten aber unbehandelten Kontrolltieren. Die Bestimmung der VD50 (Vermicide Dosis 50%: Dosis, die 50% der Wurmpaare abtötet) erfolgte nach der Probitmethode.

[1] = test system: ventralen Prostata und der Samenblase; experiment: Antiandrogenic effect: weight decrease of ventral prostate and seminal vesicle in male sterilised rats; assay type: in vivo, Ratten; details: qualitative statement only
From the text: Die antiandrogene Wirkung wurde durch Bestimmung der Gewichtsabnahme der ventralen Prostata und der Samenblase von männlichen sterilisierten Ratten ermittelt.

| Structure (SMILES) | schistosomicide Wirkung (Schistosoma mansoni) | antiandrogene Wirkung [1] |
| --- | --- | --- |
| CC1(C)NC(=O)N(c2ccc(F)c(C(F)(F)F)c2)C1=N [1-(3-Trifluormethyl-4-fluor-phenyl)-5-imino-4,4-dimethyl-2-imidazolidinon] | starken schistosomiciden Wirkung |  |
| CC1(C)NC(=O)N(c2ccc(F)c(Cl)c2)C1=O [3-(3-Chlor-4-fluor-phenyl)-5,5-dimethylhydantoin] |  | antiandrogen wirksame |
| CC1(C)NC(=O)N(c2ccc(F)c(C(F)(F)F)c2)C1=O [3-(3-Trifluormethyl-4-fluorphenyl)-5,5-dimethyl-hydantoin] | starken schistosomiciden Wirkung |  |
